Assays:
Format in all cases: biochemical
[1] = molecular target: T1, JAK1 (Homo sapiens, UniProt P23458); experiment: JAK1 kinase assay (HTRF, inhibition of phosphorylation of a synthetic peptide); conditions: catalytic domain aa 850-1154, GST-tag; 7 μM ATP (Km); read-out: JAK1 kinase inhibitory activity (EC50)
T1 construct: JAK1 (aa 850-1154) and TYK2 (aa 871-1187) are expressed with an N-terminally fused GST-tag; GST (N); purchased Carna Biosciences, Inc; host or cells: baculovirus expression system
Procedure, shortened: (§1)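 HTRF detection (streptavidin-XL665, cryptate anti-phospho antibody, overnight in the dark) after EDTA stop of a 20-30 min RT reaction on 1 μM TK substrate-biotin. Km-level ATP per kinase: 7 μM for JAK1 and 13 μM for TYK2, both N-terminal GST, with 50 nM SEB; 4 μM for JAK2 and 2 μM for JAK3, both His-tagged. Catalytic domains only; DMSO 0.75%.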

[2] = molecular target: T2, JAK2 (Homo sapiens, UniProt O60674); experiment: JAK2 kinase assay (HTRF, inhibition of phosphorylation of a synthetic peptide); conditions: catalytic domain, His-tag; 4 μM ATP (Km); read-out: JAK2 kinase inhibitory activity (EC50)
T2 construct: All four purified enzymes contain only the catalytic domain; His (N); purchased Carna Biosciences, Inc; host or cells: baculovirus expression system
Procedure, shortened: as §1

[3] = molecular target: T3, JAK3 (Homo sapiens, UniProt P52333); experiment: JAK3 kinase assay (HTRF, inhibition of phosphorylation of a synthetic peptide); conditions: catalytic domain, His-tag; 2 μM ATP (Km); read-out: JAK3 kinase inhibitory activity (EC50)
T3 construct: All four purified enzymes contain only the catalytic domain; His (N); purchased Carna Biosciences, Inc; host or cells: baculovirus expression system
Procedure, shortened: as §1

[4] = molecular target: T4, TYK2 (Homo sapiens, UniProt P29597); experiment: TYK2 kinase assay (HTRF, inhibition of phosphorylation of a synthetic peptide); conditions: catalytic domain aa 871-1187, GST-tag; 13 μM ATP (Km); read-out: TYK2 kinase inhibitory activity (EC50)
T4 construct: JAK1 (aa 850-1154) and TYK2 (aa 871-1187) are expressed with an N-terminally fused GST-tag; GST (N); purchased Carna Biosciences, Inc; host or cells: baculovirus expression system
T4 sequence (P29597 871-1187): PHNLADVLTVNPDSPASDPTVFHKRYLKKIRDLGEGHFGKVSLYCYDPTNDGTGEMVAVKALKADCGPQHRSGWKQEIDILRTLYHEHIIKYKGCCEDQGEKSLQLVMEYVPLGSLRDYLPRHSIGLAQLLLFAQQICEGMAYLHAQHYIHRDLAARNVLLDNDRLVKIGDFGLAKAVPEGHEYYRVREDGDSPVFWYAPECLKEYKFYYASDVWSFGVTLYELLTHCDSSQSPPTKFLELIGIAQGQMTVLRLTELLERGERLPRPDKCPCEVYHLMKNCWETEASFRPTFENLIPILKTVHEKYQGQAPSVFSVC
Procedure, shortened: as §1

T1 sequence (P23458 850-1154): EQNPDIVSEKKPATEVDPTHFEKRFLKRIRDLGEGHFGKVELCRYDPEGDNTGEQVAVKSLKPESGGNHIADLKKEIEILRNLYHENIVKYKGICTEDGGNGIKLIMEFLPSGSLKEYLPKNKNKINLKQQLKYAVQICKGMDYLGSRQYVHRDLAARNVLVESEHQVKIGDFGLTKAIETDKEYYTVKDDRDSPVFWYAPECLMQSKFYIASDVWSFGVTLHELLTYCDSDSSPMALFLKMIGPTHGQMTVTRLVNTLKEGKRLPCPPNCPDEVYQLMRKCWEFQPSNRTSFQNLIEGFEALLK
T2 sequence (O60674 849-1124 limits assumed): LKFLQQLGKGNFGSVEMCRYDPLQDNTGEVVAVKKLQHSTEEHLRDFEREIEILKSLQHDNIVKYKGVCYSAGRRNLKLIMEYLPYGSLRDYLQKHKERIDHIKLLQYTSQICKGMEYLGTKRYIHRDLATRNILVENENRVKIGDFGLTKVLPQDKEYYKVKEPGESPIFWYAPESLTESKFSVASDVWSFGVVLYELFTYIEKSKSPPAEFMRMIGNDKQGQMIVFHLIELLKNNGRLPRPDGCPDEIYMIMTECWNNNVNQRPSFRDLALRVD
T3 sequence (P52333 822-1111 limits assumed): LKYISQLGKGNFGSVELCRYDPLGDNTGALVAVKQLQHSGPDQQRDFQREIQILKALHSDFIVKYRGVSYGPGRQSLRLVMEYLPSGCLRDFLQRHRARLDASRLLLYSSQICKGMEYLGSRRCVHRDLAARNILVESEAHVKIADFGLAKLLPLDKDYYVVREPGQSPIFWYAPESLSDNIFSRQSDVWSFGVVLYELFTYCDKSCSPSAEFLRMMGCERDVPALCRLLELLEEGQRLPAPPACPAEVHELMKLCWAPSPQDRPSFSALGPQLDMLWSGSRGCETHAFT

N#Cc1cccc(CCC(=O)N2CCN(c3ncnc4[nH]ccc34)CC3(CC3)C2)c1 [Example 116, 3-[3-oxo-3-[5-(7H-pyrrolo[2,3-d]pyrimidin-4-yl)-5,8-diazaspiro[2.6]nonan-8-yl]propyl]benzonitrile]
EC50 [1]: 100 to 1000 nM
EC50 [2]: < 100 nM
EC50 [3]: 100 to 1000 nM
EC50 [4]: > 1000 nM

N#Cc1csc(C(=O)N2CCCN(c3ncnc4[nH]ccc34)CC23CC3)c1 [Example 119, 5-[5-(7H-pyrrolo[2,3-d]pyrimidin-4-yl)-5,9-diazaspiro[2.6]nonane-9-carbonyl]thiophene-3-carbonitrile]
EC50 [1]: < 100 nM
EC50 [2]: < 100 nM
EC50 [3]: 100 to 1000 nM
EC50 [4]: 100 to 1000 nM

N#Cc1ccc(C(=O)N2CCCN(c3ncnc4[nH]ccc34)CC23CC3)s1 [Example 120, 5-[5-(7H-pyrrolo[2,3-d]pyrimidin-4-yl)-5,9-diazaspiro[2.6]nonane-9-carbonyl]thiophene-2-carbonitrile]
EC50 [1]: < 100 nM
EC50 [2]: < 100 nM
EC50 [3]: < 100 nM
EC50 [4]: 100 to 1000 nM

O=C(Cc1ccc(Cl)cc1)N1CCN(c2ncnc3[nH]ccc23)CC2(CC2)C1 [Example 125, 2-(4-chlorophenyl)-1-[5-(7H-pyrrolo[2,3-d]pyrimidin-4-yl)-5,8-diazaspiro[2.6]nonan-8-yl]ethanone]
EC50 [1]: < 100 nM
EC50 [2]: < 100 nM
EC50 [3]: 100 to 1000 nM
EC50 [4]: 100 to 1000 nM

Cc1cc(C(=O)N2CCCN(c3ncnc4[nH]ccc34)CC23CC3)no1 [Example 141]
EC50 [1]: < 100 nM
EC50 [2]: < 100 nM
EC50 [3]: 100 to 1000 nM
EC50 [4]: 100 to 1000 nM

O=C(c1csnn1)N1CCCN(c2ncnc3[nH]ccc23)CC12CC2 [Example 142, [5-(7H-pyrrolo[2,3-d]pyrimidin-4-yl)-5,9-diazaspiro[2.6]nonan-9-yl]-(thiadiazol-4-yl)methanone]
EC50 [1]: < 100 nM
EC50 [2]: < 100 nM
EC50 [3]: 100 to 1000 nM
EC50 [4]: 100 to 1000 nM

O=C(c1ccon1)N1CCCN(c2ncnc3[nH]ccc23)CC12CC2 [Example 153, isoxazol-3-yl-[5-(7H-pyrrolo[2,3-d]pyrimidin-4-yl)-5,9-diazaspiro[2.6]nonan-9-yl]methanone]
EC50 [1]: < 100 nM
EC50 [2]: < 100 nM
EC50 [3]: 100 to 1000 nM
EC50 [4]: 100 to 1000 nM

O=C(Cc1ccc(F)cc1)N1CCN(c2ncnc3[nH]ccc23)CC2(CC2)C1 [Example 158, 2-(4-fluorophenyl)-1-[5-(7H-pyrrolo[2,3-d]pyrimidin-4-yl)-5,8-diazaspiro[2.6]nonan-8-yl]ethanone]
EC50 [1]: < 100 nM
EC50 [2]: < 100 nM
EC50 [3]: 100 to 1000 nM
EC50 [4]: 100 to 1000 nM

O=C(c1ccsn1)N1CCCN(c2ncnc3[nH]ccc23)CC12CC2 [Example 201, isothiazol-3-yl-[5-(7H-pyrrolo[2,3-d]pyrimidin-4-yl)-5,9-diazaspiro[2.6]nonan-9-yl]methanone]
EC50 [1]: < 100 nM
EC50 [2]: < 100 nM
EC50 [3]: 100 to 1000 nM
EC50 [4]: 100 to 1000 nM

O=C(c1cnsn1)N1CCCN(c2ncnc3[nH]ccc23)CC12CC2 [Example 203, [5-(7H-pyrrolo[2,3-d]pyrimidin-4-yl)-5,9-diazaspiro[2.6]nonan-9-yl]-(1,2,5-thiadiazol-3-yl)methanone]
EC50 [1]: < 100 nM
EC50 [2]: < 100 nM
EC50 [3]: 100 to 1000 nM
EC50 [4]: 100 to 1000 nM

N#Cc1c[nH]c(C(=O)N2CCCN(c3ncnc4[nH]ccc34)CC23CC3)c1 [Example 209, 5-[5-(7H-pyrrolo[2,3-d]pyrimidin-4-yl)-5,9-diazaspiro[2.6]nonane-9-carbonyl]-1H-pyrrole-3-carbonitrile]
EC50 [1]: < 100 nM
EC50 [2]: < 100 nM
EC50 [3]: < 100 nM
EC50 [4]: < 100 nM

O=C(c1ccc[nH]1)N1CCCN(c2ncnc3[nH]ccc23)CC12CC2 [Example 255, [5-(7H-pyrrolo[2,3-d]pyrimidin-4-yl)-5,9-diazaspiro[2.6]nonan-9-yl]-(1H-pyrrol-2-yl)methanone]
EC50 [1]: < 100 nM
EC50 [2]: < 100 nM
EC50 [3]: 100 to 1000 nM
EC50 [4]: 100 to 1000 nM

Nc1nonc1C(=O)N1CCCN(c2ncnc3[nH]ccc23)CC12CC2 [Example 256, (4-amino-1,2,5-oxadiazol-3-yl)-[5-(7H-pyrrolo[2,3-d]pyrimidin-4-yl)-5,9-diazaspiro[2.6]nonan-9-yl]methanone]
EC50 [1]: < 100 nM
EC50 [2]: < 100 nM
EC50 [3]: < 100 nM
EC50 [4]: 100 to 1000 nM

N#Cc1ccc(C(=O)N2CCCN(c3ncnc4[nH]ccc34)CC23CC3)o1 [Example 258, 5-[5-(7H-pyrrolo[2,3-d]pyrimidin-4-yl)-5,9-diazaspiro[2.6]nonane-9-carbonyl]furan-2-carbonitrile]
EC50 [1]: < 100 nM
EC50 [2]: < 100 nM
EC50 [3]: 100 to 1000 nM
EC50 [4]: 100 to 1000 nM

Cc1ccc(CC(=O)N2CCN(c3ncnc4[nH]ccc34)CC3(CC3)C2)cc1 [Example 263]
EC50 [1]: < 100 nM
EC50 [2]: < 100 nM
EC50 [3]: 100 to 1000 nM
EC50 [4]: 100 to 1000 nM

O=C(Cc1ccc(Br)cc1)N1CCN(c2ncnc3[nH]ccc23)CC2(CC2)C1 [Example 264, 2-(4-bromophenyl)-1-[5-(7H-pyrrolo[2,3-d]pyrimidin-4-yl)-5,8-diazaspiro[2.6]nonan-8-yl]ethanone]
EC50 [1]: < 100 nM
EC50 [2]: < 100 nM
EC50 [3]: < 100 nM
EC50 [4]: 100 to 1000 nM

O=C(Cc1ccc(C(F)(F)F)cc1)N1CCN(c2ncnc3[nH]ccc23)CC2(CC2)C1 [Example 271, 1-[5-(7H-pyrrolo[2,3-d]pyrimidin-4-yl)-5,8-diazaspiro[2.6]nonan-8-yl]-2-[4-(trifluoromethyl)phenyl]ethanone]
EC50 [1]: < 100 nM
EC50 [2]: < 100 nM
EC50 [3]: 100 to 1000 nM
EC50 [4]: 100 to 1000 nM

O=C(Cc1ccc(OC(F)(F)F)cc1)N1CCN(c2ncnc3[nH]ccc23)CC2(CC2)C1 [Example 274, 1-[5-(7H-pyrrolo[2,3-d]pyrimidin-4-yl)-5,8-diazaspiro[2.6]nonan-8-yl]-2-[4-(trifluoromethoxy)phenyl]ethanone]
EC50 [1]: < 100 nM
EC50 [2]: < 100 nM
EC50 [3]: 100 to 1000 nM
EC50 [4]: > 1000 nM

Cc1c[nH]c(C(=O)N2CCCN(c3ncnc4[nH]ccc34)CC23CC3)c1 [Example 277, (4-methyl-1H-pyrrol-2-yl)-[5-(7H-pyrrolo[2,3-d]pyrimidin-4-yl)-5,9-diazaspiro[2.6]nonan-9-yl]methanone]
EC50 [1]: < 100 nM
EC50 [2]: < 100 nM
EC50 [3]: 100 to 1000 nM
EC50 [4]: 100 to 1000 nM

Cc1[nH]c(C(=O)N2CCCN(c3ncnc4[nH]ccc34)CC23CC3)cc1C#N [Example 278, 2-methyl-5-[5-(7H-pyrrolo[2,3-d]pyrimidin-4-yl)-5,9-diazaspiro[2.6]nonane-9-carbonyl]-1H-pyrrole-3-carbonitrile]
EC50 [1]: < 100 nM
EC50 [2]: < 100 nM
EC50 [3]: 100 to 1000 nM
EC50 [4]: 100 to 1000 nM

CCCCN1CCN(c2ncnc3[nH]ccc23)CC2(CC2)C1 [Example 279, 4-(5-butyl-5,8-diazaspiro[2.6]nonan-8-yl)-7H-pyrrolo[2,3-d]pyrimidine]
EC50 [1]: > 1000 nM
EC50 [2]: > 1000 nM
EC50 [3]: > 1000 nM
EC50 [4]: > 1000 nM

CCCCN1CCCN(c2ncnc3[nH]ccc23)CC12CC2 [Example 281, 4-(9-butyl-5,9-diazaspiro[2.6]nonan-5-yl)-7H-pyrrolo[2,3-d]pyrimidine]
EC50 [1]: 100 to 1000 nM
EC50 [2]: 100 to 1000 nM
EC50 [3]: 100 to 1000 nM
EC50 [4]: > 1000 nM

CCCCC(=O)Nc1nc(N2CCN(Cc3ccccc3)CC3(CC3)C2)c2cc[nH]c2n1 [Example 282, N-[4-(5-benzyl-5,8-diazaspiro[2.6]nonan-8-yl)-7H-pyrrolo[2,3-d]pyrimidin-2-yl]pentanamide]
EC50 [1]: > 1000 nM
EC50 [2]: > 1000 nM
EC50 [3]: > 1000 nM
EC50 [4]: > 1000 nM

CCCCC(=O)Nc1nc(N2CCCN(Cc3ccccc3)C3(CC3)C2)c2cc[nH]c2n1 [Example 283, N-[4-(9-benzyl-5,9-diazaspiro[2.6]nonan-5-yl)-7H-pyrrolo[2,3-d]pyrimidin-2-yl]pentanamide]
EC50 [1]: > 1000 nM
EC50 [2]: > 1000 nM
EC50 [3]: > 1000 nM
EC50 [4]: > 1000 nM

CC1CN(c2ncnc3[nH]ccc23)CC2(CC2)CN1C(=O)c1ccccc1 (centres unmarked) [Example 284, [7-methyl-5-(7H-pyrrolo[2,3-d]pyrimidin-4-yl)-5,8-diazaspiro[2.6]nonan-8-yl]-phenyl-methanone]
EC50 [1]: > 1000 nM
EC50 [2]: > 1000 nM
EC50 [3]: > 1000 nM
EC50 [4]: > 1000 nM

CC1CN(c2ncnc3[nH]ccc23)CC2(CC2)CN1C(=O)CC1CCCC1 (centres unmarked) [Example 285, 2-cyclopentyl-1-[7-methyl-5-(7H-pyrrolo[2,3-d]pyrimidin-4-yl)-5,8-diazaspiro[2.6]nonan-8-yl]ethanone]
EC50 [1]: 100 to 1000 nM
EC50 [2]: 100 to 1000 nM
EC50 [3]: > 1000 nM
EC50 [4]: > 1000 nM
